Experimental data: patent US20050197350A1, “Novel quinoline, tetrahydroquinazoline, and pyrimidine derivatives and methods of treatment related to the use thereof” (TAISHO PHARMACEUTICAL CO., LTD., priority 2003, published 2005)

system: MCH receptors; assay: MCH receptor activity class (method not given); conditions: class by percent of control at 10^−7 M or IC50

Row | Compound | class
1 | Cc1cnc(N[C@H]2CC[C@@H](C(=O)N[C@H](C)c3ccccc3)CC2)nc1N(C)C [compound 2771, cis-4-{[4-(dimethylamino)-5-methylpyrimidin-2-yl]amino}-N-[(1R)-1-phenylethyl]cyclohexanecarboxamide] | 2 (Class 2: The value of percent of control at 10^−7 M was from 40% to 60% or the value of IC′50 was from 50 nM to 200 nM.)
2 | Cc1ccc([C@H](C)NC(=O)[C@H]2CC[C@@H](Nc3ncc(C)c(N(C)C)n3)CC2)cc1 [compound 2772, cis-4-{[4-(dimethylamino)-5-methylpyrimidin-2-yl]amino}-N-[(1S)-1-(4-methylphenyl)ethyl]cyclohexanecarboxamide] | 1 (Class 1: The value of percent of control at 10^−7 M was less than 40% or the value of IC50 was less than 50 nM.)
3 | Cc1cnc(N[C@H]2CC[C@@H](C(=O)N[C@H](C)c3ccc(F)cc3)CC2)nc1N(C)C [compound 2773, cis-4-{[4-(dimethylamino)-5-methylpyrimidin-2-yl]amino}-N-[(1R)-1-(4-fluorophenyl)ethyl]cyclohexanecarboxamide] | 1 (Class 1: The value of percent of control at 10^−7 M was less than 40% or the value of IC50 was less than 50 nM.)
4 | Cc1cnc(N[C@H]2CC[C@@H](C(=O)N[C@@H](C)c3ccc(F)cc3)CC2)nc1N(C)C [compound 2774, cis-4-{[4-(dimethylamino)-5-methylpyrimidin-2-yl]amino}-N-[(1S)-1-(4-fluorophenyl)ethyl]cyclohexanecarboxamide] | 2 (Class 2: The value of percent of control at 10^−7 M was from 40% to 60% or the value of IC′50 was from 50 nM to 200 nM.)
5 | COc1cccc([C@@H](C)NC(=O)[C@H]2CC[C@@H](Nc3ncc(C)c(N(C)C)n3)CC2)c1 [compound 2775, cis-4-{[4-(dimethylamino)-5-methylpyrimidin-2-yl]amino}-N-[(1R)-1-(3-methoxyphenyl)ethyl]cyclohexanecarboxamide] | 1 (Class 1: The value of percent of control at 10^−7 M was less than 40% or the value of IC50 was less than 50 nM.)
6 | COc1cccc([C@H](C)NC(=O)[C@H]2CC[C@@H](Nc3ncc(C)c(N(C)C)n3)CC2)c1 [compound 2776, cis-4-{[4-(dimethylamino)-5-methylpyrimidin-2-yl]amino}-N-[(1S)-1-(3-methoxyphenyl)ethyl]cyclohexanecarboxamide] | 1 (Class 1: The value of percent of control at 10^−7 M was less than 40% or the value of IC50 was less than 50 nM.)
7 | COc1ccc([C@H](C)NC(=O)[C@H]2CC[C@@H](Nc3ncc(C)c(N(C)C)n3)CC2)cc1 [compound 2777, cis-4-{[4-(dimethylamino)-5-methylpyrimidin-2-yl]amino}-N-[(1S)-1-(4-methoxyphenyl)ethyl]cyclohexanecarboxamide] | 1 (Class 1: The value of percent of control at 10^−7 M was less than 40% or the value of IC50 was less than 50 nM.)
8 | Cc1cnc(N[C@H]2CC[C@@H](C(=O)N[C@H](C)c3ccc(Cl)cc3)CC2)nc1N(C)C [compound 2778, cis-N-[(1R)-1-(4-chlorophenyl)ethyl]-4-{[4-(dimethylamino)-5-methylpyrimidin-2-yl]amino}cyclohexanecarboxamide] | 1 (Class 1: The value of percent of control at 10^−7 M was less than 40% or the value of IC50 was less than 50 nM.)
9 | Cc1cnc(N[C@H]2CC[C@@H](C(=O)N[C@H](C)c3ccc([N+](=O)[O-])cc3)CC2)nc1N(C)C [compound 2780, cis-4-{[4-(dimethylamino)-5-methylpyrimidin-2-yl]amino}-N-[(1R)-1-(4-nitrophenyl)ethyl]cyclohexanecarboxamide] | 1 (Class 1: The value of percent of control at 10^−7 M was less than 40% or the value of IC50 was less than 50 nM.)
10 | Cc1cnc(N[C@H]2CC[C@@H](C(=O)N[C@@H](C)c3ccc([N+](=O)[O-])cc3)CC2)nc1N(C)C [compound 2781, cis-4-{[4-(dimethylamino)-5-methylpyrimidin-2-yl]amino}-N-[(1S)-1-(4-nitrophenyl)ethyl]cyclohexanecarboxamide] | 2 (Class 2: The value of percent of control at 10^−7 M was from 40% to 60% or the value of IC′50 was from 50 nM to 200 nM.)
11 | Cc1cnc(N[C@H]2CC[C@@H](C(=O)N[C@H](C)c3cccc4ccccc34)CC2)nc1N(C)C [compound 2782, cis-4-{[4-(dimethylamino)-5-methylpyrimidin-2-yl]amino}-N-[(1R)-1-(1-naphthyl)ethyl]cyclohexanecarboxamide] | 1 (Class 1: The value of percent of control at 10^−7 M was less than 40% or the value of IC50 was less than 50 nM.)
12 | Cc1cnc(N[C@H]2CC[C@@H](C(=O)Nc3cccc(F)c3)CC2)nc1N(C)C [compound 2784, cis-4-{[4-(dimethylamino)-5-methylpyrimidin-2-yl]amino}-N-(3-fluorophenyl)cyclohexanecarboxamide] | 2 (Class 2: The value of percent of control at 10^−7 M was from 40% to 60% or the value of IC′50 was from 50 nM to 200 nM.)
13 | CCCc1ccc(NC(=O)[C@H]2CC[C@@H](Nc3ncc(C)c(N(C)C)n3)CC2)cc1 [compound 2785] | 2 (Class 2: The value of percent of control at 10^−7 M was from 40% to 60% or the value of IC′50 was from 50 nM to 200 nM.)
14 | COc1ccc(NC(=O)[C@H]2CC[C@@H](Nc3ncc(C)c(N(C)C)n3)CC2)cc1 [compound 2786] | 3 (Class 3 The value of percent of control at 10^−7 M was more than 60% or the value of IC50 was more than 200 nM.)
15 | COc1cccc(NC(=O)[C@H]2CC[C@@H](Nc3ncc(C)c(N(C)C)n3)CC2)c1 [compound 2787, cis-4-{[4-(dimethylamino)-5-methylpyrimidin-2-yl]amino}-N-(3-methoxyphenyl)cyclohexanecarboxamide] | 1 (Class 1: The value of percent of control at 10^−7 M was less than 40% or the value of IC50 was less than 50 nM.)
16 | Cc1cnc(N[C@H]2CC[C@@H](C(=O)Nc3cccc(Cl)c3)CC2)nc1N(C)C [compound 2788, cis-N-(3-chlorophenyl)-4-{[4-(dimethylamino)-5-methylpyrimidin-2-yl]amino}cyclohexanecarboxamide] | 1 (Class 1: The value of percent of control at 10^−7 M was less than 40% or the value of IC50 was less than 50 nM.)
17 | Cc1cnc(N[C@H]2CC[C@@H](C(=O)Nc3ccccc3Br)CC2)nc1N(C)C [compound 2789] | 3 (Class 3 The value of percent of control at 10^−7 M was more than 60% or the value of IC50 was more than 200 nM.)
18 | Cc1cnc(N[C@H]2CC[C@@H](C(=O)N[C@H]3C[C@@H]3c3ccccc3)CC2)nc1N(C)C [compound 2790, cis-4-{[4-(dimethylamino)-5-methylpyrimidin-2-yl]amino}-N-[(1S,2R)-2-phenylcyclopropyl]cyclohexanecarboxamide] | 1 (Class 1: The value of percent of control at 10^−7 M was less than 40% or the value of IC50 was less than 50 nM.)
19 | Cc1cnc(N[C@H]2CC[C@@H](C(=O)Nc3ccc(C(F)(F)F)cc3)CC2)nc1N(C)C [compound 2791, cis-4-{[4-(dimethylamino)-5-methylpyrimidin-2-yl]amino}-N-[4-(trifluoromethyl)phenyl]cyclohexanecarboxamide] | 1 (Class 1: The value of percent of control at 10^−7 M was less than 40% or the value of IC50 was less than 50 nM.)
20 | CSc1ccccc1NC(=O)[C@H]1CC[C@@H](Nc2ncc(C)c(N(C)C)n2)CC1 [compound 2792] | 2 (Class 2: The value of percent of control at 10^−7 M was from 40% to 60% or the value of IC′50 was from 50 nM to 200 nM.)
21 | Cc1cnc(N[C@H]2CC[C@@H](C(=O)N3CCc4ccccc4C3)CC2)nc1N(C)C [compound 2793] | 3 (Class 3 The value of percent of control at 10^−7 M was more than 60% or the value of IC50 was more than 200 nM.)
22 | Cc1ccc([C@H](C)NC(=O)[C@H]2CC[C@@H](Nc3nc(C)cc(N(C)C)n3)CC2)cc1 [compound 2795] | 1 (Class 1: The value of percent of control at 10^−7 M was less than 40% or the value of IC50 was less than 50 nM.)
23 | COc1cccc([C@@H](C)NC(=O)[C@H]2CC[C@@H](Nc3nc(C)cc(N(C)C)n3)CC2)c1 [compound 2796, cis-4-{[4-(dimethylamino)-6-methylpyrimidin-2-yl]amino}-N-[(1R)-1-(3-methoxyphenyl)ethyl]cyclohexanecarboxamide] | 2 (Class 2: The value of percent of control at 10^−7 M was from 40% to 60% or the value of IC′50 was from 50 nM to 200 nM.)
24 | Cc1cc(N(C)C)nc(N[C@H]2CC[C@@H](C(=O)N[C@@H](C)c3ccc(Cl)cc3)CC2)n1 [compound 2797, cis-N-[(1S)-1-(4-chlorophenyl)ethyl]-4-{[4-(dimethylamino)-6-methylpyrimidin-2-yl]amino}cyclohexanecarboxamide] | 1 (Class 1: The value of percent of control at 10^−7 M was less than 40% or the value of IC50 was less than 50 nM.)
25 | Cc1cc(N(C)C)nc(N[C@H]2CC[C@@H](C(=O)NCc3ccccc3)CC2)n1 [compound 2798, cis-N-benzyl-4-{[4-(dimethylamino)-6-methylpyrimidin-2-yl]amino}cyclohexanecarboxamide] | 2 (Class 2: The value of percent of control at 10^−7 M was from 40% to 60% or the value of IC′50 was from 50 nM to 200 nM.)
26 | Cc1cc(N(C)C)nc(N[C@H]2CC[C@@H](C(=O)NCc3ccc(F)cc3)CC2)n1 [compound 2799, cis-4-{[4-(dimethylamino)-6-methylpyrimidin-2-yl]amino}-N-(4-fluorobenzyl)cyclohexanecarboxamide] | 2 (Class 2: The value of percent of control at 10^−7 M was from 40% to 60% or the value of IC′50 was from 50 nM to 200 nM.)
27 | Cc1cc(N(C)C)nc(N[C@H]2CC[C@@H](C(=O)NCc3ccccc3F)CC2)n1 [compound 2800] | 2 (Class 2: The value of percent of control at 10^−7 M was from 40% to 60% or the value of IC′50 was from 50 nM to 200 nM.)
28 | Cc1cc(N(C)C)nc(N[C@H]2CC[C@@H](C(=O)NCc3ccc(F)c(F)c3)CC2)n1 [compound 2801, cis-N-(3,4-difluorobenzyl)-4-{[4-(dimethylamino)-6-methylpyrimidin-2-yl]amino}cyclohexanecarboxamide] | 1 (Class 1: The value of percent of control at 10^−7 M was less than 40% or the value of IC50 was less than 50 nM.)
